{"source": "patent US20250230193A1", "about": "“CYCLIC COMPOUND HAVING SELECTIVE KRAS INHIBITORY EFFECT ON HRAS AND NRAS” (CHUGAI SEIYAKU KABUSHIKI KAISHA, priority 2022, published 2025)", "key": {"[1]": {"target": "GDP-bound HRAS wild-type protein (Homo sapiens, UniProt P01112)", "sequence (P01112 whole entry)": "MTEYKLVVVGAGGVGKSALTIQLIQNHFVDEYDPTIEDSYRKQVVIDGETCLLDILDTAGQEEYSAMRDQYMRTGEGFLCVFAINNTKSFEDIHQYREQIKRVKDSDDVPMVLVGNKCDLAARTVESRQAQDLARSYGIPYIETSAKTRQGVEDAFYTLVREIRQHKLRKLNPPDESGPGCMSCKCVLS", "experiment": "Binding to HRAS by surface plasmon resonance (SPR), Single Cycle Kinetics", "settings": "for HRAS/KRAS (ratio of KD value with respect to HRAS to KD value with respect to KRAS) / HRAS/KRAS (ratio of KD value for HRAS to KD value for KRAS): GDP-bound HRAS wild-type vs GDP-bound KRAS wild-type"}, "[2]": {"target": "GDP-bound NRAS wild-type protein (Homo sapiens, UniProt P01111)", "sequence (P01111 whole entry)": "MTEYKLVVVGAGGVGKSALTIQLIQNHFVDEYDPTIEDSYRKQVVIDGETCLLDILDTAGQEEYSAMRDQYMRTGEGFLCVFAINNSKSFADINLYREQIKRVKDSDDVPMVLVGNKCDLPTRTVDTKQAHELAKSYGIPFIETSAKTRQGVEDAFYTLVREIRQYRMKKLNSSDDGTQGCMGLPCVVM", "experiment": "Binding to NRAS by surface plasmon resonance (SPR), Single Cycle Kinetics", "settings": "for NRAS/KRAS (ratio of KD value with respect to NRAS to KD value with respect to KRAS) / NRAS/KRAS (ratio of KD value for NRAS to KD value for KRAS): GDP-bound NRAS wild-type vs GDP-bound KRAS wild-type"}, "[3]": {"settings": "SPR, GDP-bound wild-type proteins"}}, "note": "*1 amine or outer side, *2 acyl side, *3 side chain or, on linkers, in order; H or OH if unused. Where a SMILES comes first, the peptide text is derived from it. Bridges are numbered along the chain shown (N, C = ends). [ ]: non-standard residue; d: D form. The star is where a group is joined. hPhe(3,5-F2-4-CF3) = N[C@@H](CCc1cc(F)c(C(F)(F)F)c(F)c1)C(=O)O; NPrPhe(4-CF3) = CCCN[C@@H](Cc1ccc(C(F)(F)F)cc1)C(=O)O; NMeGly(cPent) = CN[C@H](C(=O)O)C1CCCC1; X9 = C[C@@](N[*:1])(C(=O)[*:2])C1CC1; NMeD = CN[C@@H](CC(=O)O)C(=O)O; NMeL = CN[C@@H](CC(C)C)C(=O)O; Morpholide = C1CN(*)CCO1; Aze = O=C(O)[C@@H]1CCN1; Sar = CNCC(=O)O"}
{"smiles": "CCO[C@@H]1C[C@H]2C(=O)NC3(CCC3)C(=O)N(C)[C@@H](C3CCCC3)C(=O)N(C)[C@H](C(=O)N(C)C)CC(=O)N(C)[C@@H](CC)C(=O)N[C@@H]([C@@H](C)CC)C(=O)N3C[C@H](OCC)C[C@H]3C(=O)N(C)[C@H]3C/C=C\\CCN(C3=O)[C@@H](Cc3ccc(C(F)(F)F)cc3)C(=O)N(C)CC(=O)N[C@@H](CCc3cc(F)c(C(F)(F)F)c(F)c3)C(=O)N2C1", "note": "[PP1057]", "values": [{"measurement": "HRAS/KRAS (ratio of KD value with respect to HRAS to KD value with respect to KRAS)", "setting": "[1]; KD ratio, SPR", "value": "B (a compound having 3 or more and less than 10 is denoted as B)"}, {"measurement": "NRAS/KRAS (ratio of KD value with respect to NRAS to KD value with respect to KRAS)", "setting": "[2]; KD ratio, SPR", "value": "A (a compound having 10 or more and less than 20 is denoted as A)"}]}
{"smiles": "CCCN1C(=O)[C@@H]2CCN2C(=O)CN(C)C(=O)[C@H]([C@@H](C)CC)NC(=O)[C@H](CC(C)C)N(C)C(=O)C[C@@H](C(=O)N2CCOCC2)N(C)C(=O)[C@H](C2CCCC2)N(C)C(=O)[C@](C)(C2CC2)NC(=O)[C@@H]2CCCN2C(=O)[C@H](CCc2cc(F)c(C(F)(F)F)c(F)c2)NC(=O)CN(C)C(=O)[C@@H]1Cc1ccc(C(F)(F)F)cc1", "note": "[PP0791] ([NMeL]I[Sar][Aze][NPrPhe(4-CF3)][Sar][hPhe(3,5-F2-4-CF3)]P[X9][NMeGly(cPent)][NMeD]-Morpholide; lactam N-11)", "values": [{"measurement": "HRAS/KRAS (ratio of KD value with respect to GDP-bound HRAS wild-type protein to KD value with respect to KRAS)", "setting": "[1]; SPR", "value": "B (a compound having 3 or more and less than 10 is denoted as B)"}, {"measurement": "NRAS/KRAS (ratio of KD value with respect to GDP-bound NRAS wild-type protein to KD value with respect to KRAS)", "setting": "[2]; SPR", "value": "C (A compound having a KD ratio of 0.1 or more and less than 3 is denoted as C)"}]}
{"smiles": "CCCN(C)C(=O)[C@@H]1CC(=O)N(C)[C@@H](C2CCC2)C(=O)N[C@@H]([C@@H](C)CC)C(=O)N(C)CC(=O)N(C)[C@H]2C/C=C\\CCN(C2=O)[C@@H](Cc2ccc(C(F)(F)F)cc2)C(=O)N(C)CC(=O)N[C@@H](CCc2ccc(C(F)(F)F)c(OC)c2)C(=O)N2C[C@H](OCC)C[C@H]2C(=O)NC2(CCC2)C(=O)N(C)[C@@H](C2CCCC2)C(=O)N1C", "note": "[PP2023]", "values": [{"measurement": "HRAS/KRAS (ratio of KD value for HRAS to KD value for KRAS)", "setting": "[1]; KD ratio, SPR", "value": "B (a compound having 3 or more and less than 10 is denoted as B)"}, {"measurement": "NRAS/KRAS (ratio of KD value for NRAS to KD value for KRAS)", "setting": "[2]; KD ratio, SPR", "value": "A (a compound having 10 or more and less than 20 is denoted as A)"}]}
{"smiles": "CCC[C@@H]1C[C@H]2C(=O)NC3(CC(C)(C)C3)C(=O)N(C)[C@@H](C3CCCC3)C(=O)N(C)[C@H](C(=O)N(C)C)CC(=O)N(C)[C@@H](CC)C(=O)N[C@@H]([C@@H](C)CC)C(=O)N(C)CC(=O)N(C)[C@H]3C/C=C\\CCN(C3=O)[C@@H](Cc3ccc(C)cc3)C(=O)N(C)CC(=O)N[C@@H](CCc3cc(F)c(C(F)(F)F)c(F)c3)C(=O)N2C1", "note": "[PP2208]", "values": [{"measurement": "HRAS/KRAS (ratio of KD value with respect to HRAS to KD value with respect to KRAS)", "setting": "[1]; SPR", "value": "A (a compound having 10 or more and less than 20 is denoted as A)"}, {"measurement": "NRAS/KRAS (ratio of KD value with respect to NRAS to KD value with respect to KRAS)", "setting": "[2]; SPR", "value": "A (a compound having 10 or more and less than 20 is denoted as A)"}]}
{"smiles": "CC[C@H](C)[C@@H]1NC(=O)[C@H](CC(C)C)N(C)C(=O)C[C@@H](C(=O)N2CCOCC2)N(C)C(=O)[C@H](C2CCCC2)N(C)C(=O)C2(CCC2)NC(=O)[C@@H]2C[C@@H](O)CN2C(=O)[C@H](CCc2cc(F)c(C(F)(F)F)c(F)c2)NC(=O)CN(C)C(=O)[C@H](Cc2ccc(C(F)(F)F)cc2)N2CCCC[C@@H](C2=O)N(C)C(=O)CN(C)C1=O", "note": "[PP0868]", "values": [{"measurement": "HRAS/KRAS (ratio of KD value with respect to HRAS to KD value with respect to KRAS)", "setting": "[1]; KD ratio, SPR", "value": "B (a compound having 3 or more and less than 10 is denoted as B)"}, {"measurement": "NRAS/KRAS (ratio of KD value with respect to NRAS to KD value with respect to KRAS)", "setting": "[2]; KD ratio, SPR", "value": "C (A compound having a KD ratio of 0.1 or more and less than 3 is denoted as C)"}]}
{"smiles": "CC[C@H](C)[C@@H]1NC(=O)[C@H](CC(C)C)N(C)C(=O)C[C@@H](C(=O)N(C)C)N(C)C(=O)[C@H](C2CCCC2)N(C)C(=O)C2(CCC2)NC(=O)[C@@H]2CCCN2C(=O)[C@H](CCc2cc(F)c(C(F)(F)F)c(F)c2)NC(=O)CN(C)C(=O)[C@H](Cc2ccc(C(F)(F)F)cc2)N2CCCCC[C@@H](C2=O)N(C)C(=O)CN(C)C1=O", "note": "[PP0512]", "values": [{"measurement": "HRAS/KRAS (ratio of KD value with respect to GDP-bound HRAS wild-type protein to KD value with respect to KRAS)", "setting": "[1]; SPR", "value": "B (a compound having 3 or more and less than 10 is denoted as B)"}, {"measurement": "NRAS/KRAS (ratio of KD value with respect to GDP-bound NRAS wild-type protein to KD value with respect to KRAS)", "setting": "[2]; SPR", "value": "B (a compound having 3 or more and less than 10 is denoted as B)"}]}
{"smiles": "CCCN(C)C(=O)[C@@H]1CC(=O)N(C)[C@@H](CC)C(=O)N[C@@H]([C@@H](C)CC)C(=O)N(C)CC(=O)N(C)[C@H]2C/C=C\\CCN(C2=O)[C@@H](Cc2ccc(C(F)(F)F)cc2)C(=O)N(C)CC(=O)N[C@@H](CCc2cc(F)c(C(F)(F)F)c(F)c2)C(=O)N2C[C@H](OCC)C[C@H]2C(=O)NC2(CC(F)(F)C2)C(=O)N(C)[C@@H](C2CCCC2)C(=O)N1C", "note": "[PP1732]", "values": [{"measurement": "HRAS/KRAS (ratio of KD value for HRAS to KD value for KRAS)", "setting": "[1]; KD ratio, SPR", "value": "A (a compound having 10 or more and less than 20 is denoted as A)"}, {"measurement": "NRAS/KRAS (ratio of KD value for NRAS to KD value for KRAS)", "setting": "[2]; KD ratio, SPR", "value": "AA (a compound having 20 or more is denoted as AA)"}]}
{"smiles": "C#CC[C@H]1C(=O)N[C@@H]([C@@H](C)CC)C(=O)N(C)CC(=O)N(C)[C@H]2C/C=C\\CCN(C2=O)[C@@H](Cc2ccc(C(F)(F)F)cc2)C(=O)N(C)CC(=O)N[C@@H](CCc2ccc(C(F)(F)F)c(OC)c2)C(=O)N2CC[C@H]2C(=O)NC2(CC(C)(C)C2)C(=O)N(C)[C@@H](C2CCCC2)C(=O)N(C)[C@H](C(=O)N(C)C)CC(=O)N1C", "note": "[PP2909]", "values": [{"measurement": "HRAS/KRAS (ratio of KD value with respect to GDP-bound HRAS wild-type protein to KD value with respect to KRAS)", "setting": "[1]; class symbols", "value": "B (a compound having 3 or more and less than 10 is denoted as B)"}, {"measurement": "NRAS/KRAS (ratio of KD value with respect to GDP-bound NRAS wild-type protein to KD value with respect to KRAS)", "setting": "[2]; class symbols", "value": "B (a compound having 3 or more and less than 10 is denoted as B)"}]}
{"smiles": "CCO[C@@H]1C[C@H]2C(=O)NC3(CCC3)C(=O)N(C)[C@@H](C(CC)CC)C(=O)N(C)[C@H](C(=O)N3CCCCC3)CC(=O)N(C)[C@H]3CCC/C=C/c4ccc(cc4)C[C@@H](C(=O)N(C)CC(=O)N[C@@H](CCc4ccc(Cl)c(Cl)c4)C(=O)N2C1)N1CC/C=C\\C[C@@H](C1=O)N(C)C(=O)CN(C1CC1)C(=O)[C@H]([C@@H](C)CC)NC3=O", "note": "[PP3039]", "values": [{"measurement": "HRAS/KRAS (ratio of KD value with respect to GDP-bound HRAS wild-type protein to KD value with respect to KRAS)", "setting": "[1]; [3]", "value": "A (a compound having 10 or more and less than 20 is denoted as A)"}, {"measurement": "NRAS/KRAS (ratio of KD value with respect to GDP-bound NRAS wild-type protein to KD value with respect to KRAS)", "setting": "[2]; [3]", "value": "AA (a compound having 20 or more is denoted as AA)"}]}
{"smiles": "CCO[C@@H]1C[C@H]2C(=O)NC3(CCC3)C(=O)N(C)[C@@H](C3CCCC3)C(=O)N(C)[C@H](C(=O)N3CCOCC3)CC(=O)N(C)[C@@H](COC)C(=O)N[C@@H]([C@@H](C)CC)C(=O)NCC(=O)N(C)[C@H]3CCCCCN(C3=O)[C@@H](Cc3ccc(C(F)(F)F)cc3)C(=O)N(C)CC(=O)N[C@@H](CCc3cc(F)c(C(F)(F)F)c(F)c3)C(=O)N2C1", "note": "[PP0858]", "values": [{"measurement": "HRAS/KRAS (ratio of KD value with respect to HRAS to KD value with respect to KRAS)", "setting": "[1]; KD ratio, SPR", "value": "B (a compound having 3 or more and less than 10 is denoted as B)"}, {"measurement": "NRAS/KRAS (ratio of KD value with respect to NRAS to KD value with respect to KRAS)", "setting": "[2]; KD ratio, SPR", "value": "B (a compound having 3 or more and less than 10 is denoted as B)"}]}
